Earlier results in US20230123388A1 (GLANIS PHARMACEUTICALS, INC., priority 2020, published 2023).
Where a name gives a salt, the structure may show the parent alone. Read-outs that look alike come from different tables or passages of the source.

Legend:
[1] = not given; remark: listed apart in the source
[2] = tested on: albumin and apha1-acid glycoprotein

| SMILES | solubility in alcohol (alcohol) | solubility in chloroform (chloroform) | solubility in ether (ether) | solubility in water (water) | time of peak concentration ([1]; 200 mg oral dose) | peak concentration in blood ([1]; 200 mg oral dose, blood) | plasma concentration (peak) ([1]; 200 mg oral dose, plasma) | terminal half-life ([1]; based on blood concentration) [days] | terminal half-life ([1]; based on the plasma concentration profile) [days] | clearance ([1]; in vivo) [L/h] | half-life ([1]; in vivo) [days] | volume of distribution ([1]; in vivo, listed as HCQ) | oral bioavailability ([1]; oral tablet) | bioavailability ([1]; randomized cross over study, 155 mg dose oral and IV infusion) | protein binding [2] [%] |
| --- | --- | --- | --- | --- | --- | --- | --- | --- | --- | --- | --- | --- | --- | --- | --- |
| CCN(CCO)CCCC(C)Nc1ccnc2cc(Cl)ccc12 (stereo not drawn) [Hydroxychloroquine sulfate] | practically insoluble | practically insoluble | practically insoluble | freely soluble |  |  |  |  |  |  |  |  |  |  |  |
| CCN(CCO)CCCC(C)Nc1ccnc2cc(Cl)ccc12 (stereo not drawn) [Hydroxychloroquine] |  |  |  |  | around 3 hours | around 129.6 ng/ml | around 50.3 ng/ml | 30 to 60 | ~32 | 15.5 | ~2.08 | very large and high | about 75% | 0.74 | ~40 |
